Experimental data: patent publication US9428508B2, “2,4-diamino-6,7-dihydro-5H-pyrrolo[2,3]pyrimidine derivatives as FAK/Pyk2 inhibitors” (Centaurus BioPharma Co., Ltd., priority 2011, dated 2016)

Assays:
PYK2 = PYK2 (Homo sapiens (Human), UniProt Q14289); assay: Biochemical assay for PYK2 activity (LANCE TR-FRET, ULight-poly Glu,Ala,Tyr substrate); conditions: GST-tagged PYK2, 40 min reaction
Method in brief: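 GST-tagged human PYK2 (2 nM working stock) with ULight-poly Glu,Ala,Tyr (1:1:1) peptide (666 nM working stock) and ATP (46.6 μM working stock) in 40 mM Tris pH 7.5, MgCl2, 1 mM DTT, 1 mM CHAPS; 40 min reaction, EDTA quench. Phosphotyrosine read by LANCE Eu-anti-phosphotyrosine (PY20) TR-FRET after 60 min; 12-point 3-fold compound dilutions.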

FAK = FAK (Homo sapiens (Human), UniProt Q05397); assay: Biochemical assay for FAK activity (LANCE TR-FRET, ULight-poly Glu,Ala,Tyr substrate); conditions: GST-tagged FAK, 120 min reaction
Method in brief: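 GST-tagged FAK (2.5 nM working stock) with ULight-poly Glu,Ala,Tyr (666 nM stock) and ATP (33.3 μM stock) in Tris pH 7.5/MgCl2/DTT/CHAPS buffer with BSA, 120 min; EDTA-quenched. Phosphorylation read by TR-FRET with Eu-anti-phosphotyrosine (PY20) antibody after 60 min. Compounds tested as 12-point 3-fold dilutions.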

FAK, sequence (Q05397 whole entry): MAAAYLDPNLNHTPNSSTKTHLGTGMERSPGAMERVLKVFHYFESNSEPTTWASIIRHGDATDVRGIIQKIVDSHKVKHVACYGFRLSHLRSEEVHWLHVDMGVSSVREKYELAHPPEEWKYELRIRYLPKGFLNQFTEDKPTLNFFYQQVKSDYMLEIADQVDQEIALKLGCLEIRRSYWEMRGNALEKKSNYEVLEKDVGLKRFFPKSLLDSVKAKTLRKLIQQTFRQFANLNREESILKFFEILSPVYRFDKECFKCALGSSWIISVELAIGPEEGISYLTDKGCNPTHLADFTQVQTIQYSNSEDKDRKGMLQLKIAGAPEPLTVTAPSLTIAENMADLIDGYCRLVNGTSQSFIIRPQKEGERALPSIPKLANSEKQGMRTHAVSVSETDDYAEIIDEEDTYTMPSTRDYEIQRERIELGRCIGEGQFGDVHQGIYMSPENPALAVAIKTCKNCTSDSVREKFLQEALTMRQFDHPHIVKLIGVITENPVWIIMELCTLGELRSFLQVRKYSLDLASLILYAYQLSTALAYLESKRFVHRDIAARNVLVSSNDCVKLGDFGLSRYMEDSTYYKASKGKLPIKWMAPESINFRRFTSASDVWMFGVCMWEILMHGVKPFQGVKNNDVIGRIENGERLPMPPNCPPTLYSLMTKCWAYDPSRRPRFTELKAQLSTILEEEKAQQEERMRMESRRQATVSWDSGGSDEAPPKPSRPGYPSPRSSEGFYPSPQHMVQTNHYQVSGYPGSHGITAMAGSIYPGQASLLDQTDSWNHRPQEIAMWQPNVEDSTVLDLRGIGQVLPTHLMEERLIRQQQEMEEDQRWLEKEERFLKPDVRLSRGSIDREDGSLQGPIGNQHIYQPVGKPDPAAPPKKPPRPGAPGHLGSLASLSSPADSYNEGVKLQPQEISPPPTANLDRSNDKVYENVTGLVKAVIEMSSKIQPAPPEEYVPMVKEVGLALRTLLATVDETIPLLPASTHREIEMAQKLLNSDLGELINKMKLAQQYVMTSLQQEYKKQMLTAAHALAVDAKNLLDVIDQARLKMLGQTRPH
PYK2, sequence (Q14289 whole entry): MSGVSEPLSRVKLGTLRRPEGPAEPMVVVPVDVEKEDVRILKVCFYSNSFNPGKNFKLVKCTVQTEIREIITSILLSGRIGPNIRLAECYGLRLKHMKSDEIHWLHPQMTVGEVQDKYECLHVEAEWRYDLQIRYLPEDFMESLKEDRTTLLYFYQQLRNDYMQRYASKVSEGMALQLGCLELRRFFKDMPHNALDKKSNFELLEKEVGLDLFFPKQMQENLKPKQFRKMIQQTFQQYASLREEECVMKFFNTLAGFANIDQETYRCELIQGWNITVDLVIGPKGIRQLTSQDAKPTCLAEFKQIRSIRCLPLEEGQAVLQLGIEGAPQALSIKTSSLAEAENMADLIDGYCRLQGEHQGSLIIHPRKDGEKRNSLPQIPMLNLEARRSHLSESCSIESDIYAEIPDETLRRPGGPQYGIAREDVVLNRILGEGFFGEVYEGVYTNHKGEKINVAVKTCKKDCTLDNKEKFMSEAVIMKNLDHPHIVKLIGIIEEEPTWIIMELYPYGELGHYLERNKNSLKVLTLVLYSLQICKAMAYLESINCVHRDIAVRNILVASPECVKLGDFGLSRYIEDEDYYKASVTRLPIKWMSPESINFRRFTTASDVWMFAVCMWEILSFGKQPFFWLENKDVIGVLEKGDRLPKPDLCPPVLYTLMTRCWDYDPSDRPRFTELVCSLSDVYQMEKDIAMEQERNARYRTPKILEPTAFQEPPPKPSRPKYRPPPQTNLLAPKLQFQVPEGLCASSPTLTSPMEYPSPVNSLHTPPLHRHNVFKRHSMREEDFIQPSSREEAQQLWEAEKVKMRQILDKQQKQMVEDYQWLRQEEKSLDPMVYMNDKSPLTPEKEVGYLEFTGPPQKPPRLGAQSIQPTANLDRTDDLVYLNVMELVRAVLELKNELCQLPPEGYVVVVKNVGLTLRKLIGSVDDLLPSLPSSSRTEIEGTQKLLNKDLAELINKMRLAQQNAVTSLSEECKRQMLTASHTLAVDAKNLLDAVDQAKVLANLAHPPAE

| Compound | IC50 (PYK2) | IC50 (FAK) |
| --- | --- | --- |
| COc1cc(N2CCOCC2)ccc1Nc1nc2c(c(Nc3ccccc3S(=O)(=O)NC3CC3)n1)C1(CC1)CN2 [Example 146, N-cyclopropyl-2-(2′-(2-methoxy-4-morpholinophenylamino)-6′,7′-dihydrospiro[cyclopropane-1,5′-pyrrolo[2,3-d]pyrimidine]-4′-ylamino)benzenesulfonamide] | > 1000 nM | > 1000 nM |
| COc1cc(N2CCOCC2)ccc1Nc1nc2c(c(Nc3ccccc3S(=O)(=O)NC3CCCCC3)n1)C1(CC1)CN2 [Example 149, N-cyclohexyl-2-(2′-(2-methoxy-4-morpholinophenylamino)-6′,7′-dihydrospiro[cyclopropane-1,5′-pyrrolo[2,3-d]pyrimidine]-4′-ylamino)benzenesulfonamide] | < 500 nM | < 500 nM |
| COc1cc(N2CCOCC2)ccc1Nc1nc2c(c(Nc3ccc(F)c(F)c3)n1)C1(CC1)CN2 [Example 153, N^4′-(3,4-difluorophenyl)-N^2′-(2-methoxy-4-morpholinophenyl)-6′,7′-dihydrospiro[cyclopropane-1,5′-pyrrolo[2,3-d]pyrimidine]-2′,4′-diamine] | < 500 nM | < 200 nM |
| CNC(=O)c1ccccc1Nc1nc(Nc2ccc(N3CCOCC3)cc2)nc2c1CCN2 [Example 158, N-methyl-2-(2-(4-morpholinophenylamino)-6,7-dihydro-5H-pyrrolo[2,3-d]pyrimidin-4-ylamino)benzamide] | < 100 nM | < 100 nM |
| CNC(=O)c1ccccc1Nc1nc(Nc2ccccc2OC)nc2c1CCN2 [Example 159, 2-(2-(2-methoxyphenylamino)-6,7-dihydro-5H-pyrrolo[2,3-d]pyrimidin-4-ylamino)-N-methylbenzamide] | < 200 nM | < 200 nM |
| COc1cc(N2CCOCC2)ccc1Nc1nc2c(c(Nc3ccccc3C(=O)O)n1)CCN2 [Example 160, 2-(2-(2-methoxy-4-morpholinophenylamino)-6,7-dihydro-5H-pyrrolo[2,3-d]pyrimidin-4-ylamino)benzoic acid] | < 1000 nM | < 500 nM |
| COc1cc(N2CCOCC2)ccc1Nc1nc2c(c(Nc3ccccc3C=O)n1)CCN2 [Example 161, 2-(2-(2-methoxy-4-morpholinophenylamino)-6,7-dihydro-5H-pyrrolo[2,3-d]pyrimidin-4-ylamino)benzaldehyde] | < 1000 nM | < 1000 nM |

The next lines start with the values.

| IC50 (PYK2) | IC50 (FAK) | Compound |
| --- | --- | --- |
| < 20 nM | < 20 nM | C=CCNS(=O)(=O)c1ccccc1Nc1nc(Nc2ccc(N3CCOCC3)cc2OC)nc2c1C1(CC1)CN2 [Example 144, N-allyl-2-(2′-(2-methoxy-4-morpholinophenylamino)-6′,7′-dihydrospiro[cyclopropane-1,5′-Pyrrolo[2,3-d]pyrimidine]-4′-ylamino)benzenesulfonamide] |
| < 100 nM | < 100 nM | COc1cc(N2CCOCC2)ccc1Nc1nc2c(c(Nc3ccccc3S(=O)(=O)NC3CCCC3)n1)C1(CC1)CN2 [Example 145, N-cyclopentyl-2-(2′-(2-methoxy-4-morpholinophenylamino)-6′,7′-dihydrospiro[cyclopropane-1,5′-pyrrolo[2,3-d]pyrimidine]-4′-ylamino)benzenesulfonamide] |
| < 20 nM | < 20 nM | CCCNS(=O)(=O)c1ccccc1Nc1nc(Nc2ccc(N3CCOCC3)cc2OC)nc2c1C1(CC1)CN2 [Example 148, 2-(2′-(2-methoxy-4-morpholinophenylamino)-6′,7′-dihydrospiro[cyclopropane-1,5′-pyrrolo[2,3-d]pyrimidine]-4′-ylamino)-N-propylbenzenesulfonamide] |
| < 20 nM | < 20 nM | COc1cc(N2CCOCC2)ccc1Nc1nc2c(c(Nc3ccccc3S(=O)(=O)NC3CCC3)n1)C1(CC1)CN2 [Example 150, N-cyclobutyl-2-(2′-(2-methoxy-4-morpholinophenylamino)-6′,7′-dihydrospiro[cyclopropane-1,5′-pyrrolo[2,3-d]pyrimidine]-4′-ylamino)benzenesulfonamide] |
| < 20 nM | < 20 nM | COc1cc(N2CCOCC2)ccc1Nc1nc2c(c(Nc3ccccc3S(=O)(=O)N(C)C)n1)C1(CC1)CN2 [Example 151, 2-(2′-(2-methoxy-4-morpholinophenylamino)-6′,7′-dihydrospiro[cyclopropane-1,5′-pyrrolo[2,3-d]pyrimidine]-4′-ylamino)-N,N-dimethylbenzenesulfonamide] |
| < 20 nM | < 50 nM | CNC(=O)c1ccccc1Nc1nc(Nc2ccc(N3CCOCC3)cc2OC)nc2c1C1(CC1)CN2 [Example 152, 2-(2′-(2-methoxy-4-morpholinophenylamino)-6′,7′-dihydrospiro[cyclopropane-1,5′-pyrrolo[2,3-d]pyrimidine]-4′-ylamino)-N-methylbenzamide] |
| < 100 nM | < 50 nM | COc1cc(N2CCOCC2)ccc1Nc1nc2c(c(Nc3cccc(C)n3)n1)C1(CC1)CN2 [Example 154, N^2′-(2-methoxy-4-morpholinophenyl)-N^4′-(6-methylpyridin-2-yl)-6′,7′-dihydrospiro[cyclopropane-1,5′-pyrrolo[2,3-d]pyrimidine]-2′,4′-diamine] |
| < 50 nM | < 50 nM | COc1cc(N2CCOCC2)ccc1Nc1nc2c(c(Nc3ccccc3NC(C)=O)n1)C1(CC1)CN2 [Example 155, N-(2-(2′-(2-methoxy-4-morpholinophenylamino)-6′,7′-dihydrospiro[cyclopropane-1,5′-pyrrolo[2,3-d]pyrimidine]-4′-ylamino)phenyl)acetamide] |
| < 20 nM | < 20 nM | COc1cc(N2CCOCC2)ccc1Nc1nc2c(c(Nc3ccccc3N(C)S(C)(=O)=O)n1)C1(CC1)CN2 [Example 156, N-(2-(2′-(2-methoxy-4-morpholinophenylamino)-6′,7′-dihydrospiro[cyclopropane-1,5′-pyrrolo[2,3-d]pyrimidine]-4′-ylamino)phenyl)-N-methylmethanesulfonamide] |
| < 20 nM | < 20 nM | CNS(=O)(=O)c1ccccc1Nc1nc(Nc2cc(OC)c(OC)c(OC)c2)nc2c1C1(CC1)CN2 [Example 157, N-methyl-2-(2′-(3,4,5-trimethoxyphenylamino)-6′,7′-dihydrospiro[cyclopropane-1,5′-pyrrolo[2,3-d]pyrimidine]-4′-ylamino)benzenesulfonamide] |
| < 50 nM | < 100 nM | COc1cc(N2CCC(N3CCNCC3)CC2)ccc1Nc1nc2c(c(Nc3ccccc3P(C)(C)=O)n1)CCN2 [Example 163, N^4-(2-(dimethylphosphoryl)phenyl)-N^2-(2-methoxy-4-(4-(piperazin-1-yl)piperidin-1-yl)phenyl)-6,7-dihydro-5H-pyrrolo[2,3-d]pyrimidine-2,4-diamine] |
